Laboratory results: patent US20230382966A1, “NOVEL KLOTHO INTERACTION SITE IN THE C-TERMINUS OF FGF23” (INDIANA UNIVERSITY RESEARCH AND TECHNOLOGY CORPORATION, priority 2020, published 2023)
“Also recorded” adds a separate entry of the source. Bridges are numbered along the chain shown (N, C = ends). Roman numbers before positions name the chains, in order. Where no end group is shown, it is not given here.

Key:
FGFR/KL-complex = biological target: T1, FGFR/KL-complex (Homo sapiens, UniProt Q9UEF7); experiment: FGF23-antagonism measured by relative p-Erk levels in 293/KL cells; type: cell-based; conditions: for IC50: p-Erk
T1 construct: expressed in transfected cells; host or cells: 293T HEK cells overexpressing human KL (293/KL)
T1 sequence (Q9UEF7 34-1012): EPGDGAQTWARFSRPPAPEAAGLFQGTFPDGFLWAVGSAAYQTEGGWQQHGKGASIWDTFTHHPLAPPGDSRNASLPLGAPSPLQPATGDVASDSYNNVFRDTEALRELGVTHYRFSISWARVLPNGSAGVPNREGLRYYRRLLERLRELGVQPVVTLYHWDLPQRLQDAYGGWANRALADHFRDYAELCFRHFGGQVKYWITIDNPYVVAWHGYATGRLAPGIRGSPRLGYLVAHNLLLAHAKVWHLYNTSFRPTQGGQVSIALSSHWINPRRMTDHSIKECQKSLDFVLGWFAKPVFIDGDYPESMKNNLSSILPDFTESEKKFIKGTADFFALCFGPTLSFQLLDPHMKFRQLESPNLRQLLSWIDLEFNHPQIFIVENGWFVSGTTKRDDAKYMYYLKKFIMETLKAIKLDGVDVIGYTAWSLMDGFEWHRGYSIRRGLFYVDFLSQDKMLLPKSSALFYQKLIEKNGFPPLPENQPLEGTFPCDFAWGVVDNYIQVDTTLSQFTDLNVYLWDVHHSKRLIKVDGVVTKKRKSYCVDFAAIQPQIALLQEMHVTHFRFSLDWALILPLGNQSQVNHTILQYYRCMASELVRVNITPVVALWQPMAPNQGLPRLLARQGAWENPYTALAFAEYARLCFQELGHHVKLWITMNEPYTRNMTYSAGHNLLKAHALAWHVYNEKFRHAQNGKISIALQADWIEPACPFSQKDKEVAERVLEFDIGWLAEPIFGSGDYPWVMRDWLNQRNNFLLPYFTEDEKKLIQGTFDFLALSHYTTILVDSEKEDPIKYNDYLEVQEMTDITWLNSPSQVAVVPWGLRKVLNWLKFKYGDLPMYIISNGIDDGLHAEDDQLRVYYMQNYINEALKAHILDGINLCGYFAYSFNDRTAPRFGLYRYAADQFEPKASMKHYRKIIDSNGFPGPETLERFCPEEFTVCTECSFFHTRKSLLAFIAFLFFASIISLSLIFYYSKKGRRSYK
Description: FIGS. 1A-1F Structure activity analysis among the two KL-interacting peptides C26 and C28. FIG. 1A provides a schematic representation of FGF23 showing the Amino terminal FGF23 core (amino acids 25-179) and the C-terminal portion that comprises two Klotho interaction sites “C26” (amino acids 180-205) and “C28” (amino acids 212-239); FIGS. 1B-1F are graphs presenting FGF23-antagonism measured by the relative p-Erk levels in 293/KL cells with increasing doses of the peptide antagonist. (FIG. 1B) compares C26 and C28; FIG. 1C is a graph showing the effect of the substitutions from C28 sequence into the C26 sequence on the peptide activity, comparing peptides C26(●), 1(▪), 2( ? ), 3(▴), and 4(○); FIG. 1D is a graph showing the effect of the substitutions from C28 sequence in the C26 sequence on the peptide activity, C28(●), 5(▪), 6( ? ), and 7(▴); FIGS. 1E & 1F are graphs showing the activity of shortened FGF23 C-terminal peptide antagonist in vitro. For FIG. 1E peptides C26(●), 8(▪), 9( ? ) are compared; For FIG. 1F peptides 6(●), 10(▪), 11( ? ), and 12(▴).
FIGS. 4A & 4B provide data relating to mutation of the C-terminal FGF23 peptides to assess their KL-interaction site by study of FGF23-activity antagonism in 293/KL cells. FGF23 C-terminal peptides tested for their ability to block FGF23-signaling measured by relative p-Erk levels are shown in FIG. 4A for peptides C26 (●), C28(▪), C26A1(T ? , FGF23^180-205, A^188), C28A2(▴, FGF23^212-239, A^222); and in FIG. 4B for peptides C72(●, FGF23^180-251), C72A1(▪, FGF23^180-251, A^188), C72 A2 ( ? , FGF23^180-251, A^222), C72A1A2(▴, FGF23^180-251, A^188,222). […]

FGFR/KL complex = experiment: FGF23-signaling activity (stimulation of Erk-phosphorylation) in 293/KL cells; type: cell-based, human
Method: (§1) FIGS. 5A-5D provide data relating to the activities of FGF23-analogs containing one or two active KL-interaction sites by in vitro and in vivo methods. […] FIGS. 5B-5D are scatter plots presenting an in vivo assessment of FGF23-activity in mice. WT mice were treated with 0.5 mg/kg body weight with either FGF23, FGF23 A^188, FGF23 A^222, FGF23 A^188,222, or vehicle, n=5 or 10/group, and post 3-hours the gene expression changes were studied by quantitative real time PCR for target genes, FIG. 5B represents measurement of Cyp24a1, FIG. 5C represents measurement of Cyp27b1, and FIG. 5D represents measurement of Egr1. The data is presented as a scatter plot where each dot represents one animal, mean ±SEM. One-way ANOVA with Tukey's comparison was employed for statistical analyses where***P<0.001 vs. vehicle; #P<0.05, ##P<0.01, ###P<0.001 vs FGF23; and $$$P<0.001 vs FGF23 A^188,222 was calculated.
Whether FGF23-based agonism can employ each of the two KL-interaction sites as witnessed in the C72 peptide antagonist was studied. To do so, a selective mutation at position Asp188 or Asp222 was made in the native FGF23. […] This is consistent with prior reports where C-terminal sequence deletion after residue 205 position had no apparent effect on cellular signaling (FIG. 5A, Table 3). […] Asp188 residue is purported to be singularly essential for KL-binding and FGF23 activity, and its importance was substantiated by the lack of antagonism when the C26 peptide was similarly mutated from Asp to Ala (FIG. 4A). […] To confirm that these observations were not resulting from unexpected changes in higher order structure that was not apparent in biosynthesis, purification, or formulation of the mutant proteins their biophysical integrity were directly assessed by thermal denaturation.
The N-terminal domain of the endocrine FGFs primarily determines the FGFR-activation while the C-terminal sequence guides the co-receptor specificity with a Klotho co-receptor, KL or KLB. The receptor complex specificity among the endocrine FGF-proteins can be modulated by altering their C-terminal domains. Consequently, two FGF21-23 chimeric protein analogs were prepared containing the FGF21 N-terminal core with its C-terminal KLB-binding peptide replaced with an FGF23 C-terminal peptide sequence constituted by C72 (FGF21-23 C72) or C26 (FGF21-23 C26) (Table 3).

[1] = system: FGFR/KL-downstream targets Cyp24a1, Cyp27b1 and Egr1; experiment: Mouse kidney gene expression after FGF23 protein analogs (quantitative real time PCR); type: in vivo; conditions: WT mice, 0.5 mg/kg, 3 hours
Method: as §1
To test whether C28 as the second KL-interaction site can promote FGF23 in vivo activity, the single site FGF23-analogs were assessed for their ability to alter kidney gene expression in normal mice. Four proteins (FGF23, FGF23 A188, FGF23 A222 or FGF23 A188, 222 analogs) were each dosed to mice 0.5 mg/kg and 3 hours later quantitative real time PCR was employed to assess kidney mRNA expression of the FGFR/KL-downstream targets Cyp24a1, Cyp27b1 and early growth response protein 1 (Egr1). […] This is not surprising since the optimal treatment time for Egrl modulation is as early as 1 hour for FGF-signaling measurements. The magnitude in upregulation of gene expression for Cyp24a1 was the highest, with twenty-fold induction by native FGF23 treatment (FIG. 5B). […] Similarly, the Egrl induction is reduced for FGF23 A188 and FGF23 A222 analogs as compared to native FGF23 (P<0.05, FIG. 5D), but no difference is observed among the analogs and FGF23 for Cyp27b1 (FIG. 5C).

[2] = Table 2, block of FGF23-signaling
[3] = Table 1, block of FGF23-signaling

ASDPLGVVRPRARM [Peptide 11]
IC50 (FGFR/KL-complex; [2]): 17.1 ± 0.6 nM

DPLGVVRPRARM [Peptide 12]
IC50 (FGFR/KL-complex; [2]): 70.9 ± 29.5 nM

DPLNVLKPRARM [Peptide 9]
IC50 (FGFR/KL-complex; [2]): 542 ± 282 nM

ERDPLNVLKPRARM [Peptide 8]
IC50 (FGFR/KL-complex; [2]): 97 ± 30.3 nM

I: SAEDDSERDPLNVLKPRARMTPAPASGPEGC / II: SAEDDSERDPLNVLKPRARMTPAPASGPEGC (disulfide I:31-II:31) [Peptide 17]
enhancement of FGF23-antagonistic potency of dimer compared to corresponding monomers (FGFR/KL-complex; fold): approximately twenty to fifty-fold

I: SAEDNSPMASAPLGVVRPRARMTHAGGTGPEGC / II: SAEDNSPMASDPLGVVRPRARMTHAGGTGPEGC (disulfide I:33-II:33) [Peptide 22]
FGF23-antagonist activity (in words) (FGFR/KL-complex): reduced in potency relative to C72 and peptide 20

I: SAEDNSPMASDPLGVVRGGRVNTHAGGTGPEGC / II: SAEDDSERDPLNVLKPRARMTPAPASGPEGC (disulfide I:33-II:31) [Peptide 19]
FGF23-antagonist activity (in words) (FGFR/KL-complex): indistinguishable from the activity of the two homodimers | enhancement of FGF23-antagonistic potency of dimer compared to corresponding monomers (FGFR/KL-complex; fold): approximately twenty to fifty-fold

I: SAEDNSPMASDPLGVVRGGRVNTHAGGTGPEGC / II: SAEDNSPMASDPLGVVRGGRVNTHAGGTGPEGC (disulfide I:33-II:33) [Peptide 18]
enhancement of FGF23-antagonistic potency of dimer compared to corresponding monomers (FGFR/KL-complex; fold): approximately twenty to fifty-fold

I: SAEDNSPMASDPLGVVRPRARMTHAGGTGPEGC / II: SAEDNSPMASDPLGVVRPRARMTHAGGTGPEGC (disulfide I:33-II:33) [Peptide 20]
FGF23-antagonist activity (in words) (FGFR/KL-complex): equal to that of C72; also recorded: no greater potency than C72

PMASDPLGVVRPRARM [Peptide 10]
IC50 (FGFR/KL-complex; [2]): 3.8 ± 0.9 nM

SAEDDSERAPLNVLKPRARMTPAPASCSQELPSAEDNSPMASAPLGVVRGGRVNTHAGGTGPEGCRPFAKFI [C72 A1A2, FGF23^180-251, A^188,222]
FGF23-antagonist activity (in words) (FGFR/KL-complex): complete loss of activity

SAEDDSERAPLNVLKPRARMTPAPASCSQELPSAEDNSPMASDPLGVVRGGRVNTHAGGTGPEGCRPFAKFI [C72 A1, FGF23^180-251, A^188]
IC50 (FGFR/KL-complex; [3]): 24.5 ± 11.5 nM | reduction in inhibitory potency relative to C72 (FGFR/KL-complex; fold): more than twenty-fold

SAEDDSERDPLNVLKPRARMTPAPASCSQELPSAEDNSPMASAPLGVVRGGRVNTHAGGTGPEGCRPFAKFI [C72 A2, FGF23^180-251, A^222]
IC50 (FGFR/KL-complex; [3]): 33.1 ± 15.8 nM | reduction in inhibitory potency relative to C72 (FGFR/KL-complex; fold): more than twenty-fold

SAEDNSPMASDPLGVVRGGRVNTHAGGTGPEGCRPFAKFI [C40]
enhancement of antagonistic potency relative to C28 (FGFR/KL-complex; fold): two to three-fold

B1: FGF23 A^222: FGF23^25-240, A^222 (protein)
chain: YPNASPLLGSSWGGLIHLYTATARNSYHLQIHKNGHVDGAPHQTIYSALMIRSEDAGFVVITGVMSRRYLCMDFRGNIFGSHYFDPENCRFQHQTLENGYDVYHSPQYHFLVSLGRAKRAFLPGMNPPPYSQFLSRRNEIPLIHFNTPIPRRHTRSAEDDSERDPLNVLKPRARMTPAPASCSQELPSAEDNSPMASAPLGVVRGGRVNTHAGGTG
FGF23-type agonism / FGFR/KL activation (in words) (FGFR/KL complex): comparable potency to native protein | EC50 (FGFR/KL complex; Table 3, p-Erk): 0.29 ± 0.12 nM | kidney Cyp24a1 mRNA expression vs vehicle [1]: significant elevation | kidney Cyp27b1 mRNA expression vs vehicle [1]: coordinate suppression | Egr1 induction as compared to native FGF23 ([1]; kidney): reduced | magnitude of Cyp24a1 effect as compared to native FGF23 ([1]; kidney): fractionally reduced

B2: FGF21: FGF21^29-209 (protein)
chain: HPIPDSSPLLQFGGQVRQRYLYTDDAQQTEAHLEIREDGTVGGAADQSPESLLQLKALKPGVIQILGVKTSRFLCQRPDGALYGSLHFDPEACSFRELLLEDGYNVYQSEAHGLPLHLPGNKSPHRDPAPRGPARFLPLPGLPPALPEPPGILAPQPPDVGSSDPLSMVGPSQGRSPSYAS
FGF23-type agonism / FGFR/KL activation (in words) (FGFR/KL complex): unable to activate

B3: FGF23^180-251: SAEDD SER-- DPLNV LKPRA RMTPA PAS CSQELP SAEDNSPMASDPLGVVRGGRVNTHAGGT GPEGC RPFAKFI (peptide)
chain: SAEDDSERDPLNVLKPRARMTPAPASCSQELPSAEDNSPMASDPLGVVRGGRVNTHAGGTGPEGCRPFAKFI
IC50 (FGFR/KL-complex; [3]): 1.2 nM | enhancement of antagonistic potency relative to C26 (FGFR/KL-complex; fold): seventy | enhancement of antagonistic potency relative to C28 (FGFR/KL-complex; fold): thirty-fold
